The conditions of series [1]: acids formed by oxidation of POH/PCO; cited from earlier work.
The conditions of series [2]: in vivo. From the text:
(§1) The antimicrobial effectiveness of POH diminishes in more dilute solutions. […] However, POH at concentrations equal to and higher than 4% will cause skin irritation and thus are not practical for clinical applications. Therefore, the highest concentration proposed is 3% to maintain a practical clinical range.

The test system of the next series is all microorganisms. Kind of series: Challenge of antimicrobial effectiveness of POH by concentration. Type of series: cell-based.
Excerpt: as §1

For series [3] the following is noted: humans, dogs, and rats; cited from earlier work.
The conditions of series [4]: rats, prior systemic studies; cited from earlier work.

A value given as a limit tells only on which side of the number the result lay.

As to `C=C(C)[C@@H]1CC=C(C(=O)O)CC1` [Perillic], in series [1], the antimicrobial activity result is listed as “lose the antimicrobial activity”.
As to `C=C(C)C1CCC(C(=O)O)CC1` (stereo not shown) [Dihydroperillic], the antimicrobial activity entry in series [1] is “lose the antimicrobial activity”.
For `C=C(C)[C@@H]1CC=C(CO)CC1` [Perillyl alcohol, perillyl alcohol], the “concentration that will cause skin irritation” value in series [2] is recorded as at least 4%. For the same compound, the antimicrobial effectiveness result with all microorganisms (0.1% concentration) is “reasonable against all microorganisms”; in the series with all microorganisms (over 90% concentrations) it was “eradicating the microorganisms completely”. Besides, in series [3], the metabolization entry is “rapidly metabolized”. The “metabolization, detection of parent compound” value in series [4] is recorded as “not detected”.

(Values after patent US20250319047A1, “ANTIMICROBIAL TREATMENT AND PREVENTION BY PERILLYL ALCOHOL AND DERIVATIVES” (priority 2024, published 2025).)
